{"source": "patent US20190365951A1", "about": "“HUMAN CARDIAC TISSUE CONSTRUCT, RELATED METHODS AND USES” (FUNDACIÓ INSTITUTE DE BIOENGINYERIA DE CATALUNYA (IBEC), priority 2018, published 2019)", "key": {"hERG ion channels": {"biological_target": "hERG ion channels (Homo sapiens, UniProt Q12809)", "sequence (Q12809 whole entry)": "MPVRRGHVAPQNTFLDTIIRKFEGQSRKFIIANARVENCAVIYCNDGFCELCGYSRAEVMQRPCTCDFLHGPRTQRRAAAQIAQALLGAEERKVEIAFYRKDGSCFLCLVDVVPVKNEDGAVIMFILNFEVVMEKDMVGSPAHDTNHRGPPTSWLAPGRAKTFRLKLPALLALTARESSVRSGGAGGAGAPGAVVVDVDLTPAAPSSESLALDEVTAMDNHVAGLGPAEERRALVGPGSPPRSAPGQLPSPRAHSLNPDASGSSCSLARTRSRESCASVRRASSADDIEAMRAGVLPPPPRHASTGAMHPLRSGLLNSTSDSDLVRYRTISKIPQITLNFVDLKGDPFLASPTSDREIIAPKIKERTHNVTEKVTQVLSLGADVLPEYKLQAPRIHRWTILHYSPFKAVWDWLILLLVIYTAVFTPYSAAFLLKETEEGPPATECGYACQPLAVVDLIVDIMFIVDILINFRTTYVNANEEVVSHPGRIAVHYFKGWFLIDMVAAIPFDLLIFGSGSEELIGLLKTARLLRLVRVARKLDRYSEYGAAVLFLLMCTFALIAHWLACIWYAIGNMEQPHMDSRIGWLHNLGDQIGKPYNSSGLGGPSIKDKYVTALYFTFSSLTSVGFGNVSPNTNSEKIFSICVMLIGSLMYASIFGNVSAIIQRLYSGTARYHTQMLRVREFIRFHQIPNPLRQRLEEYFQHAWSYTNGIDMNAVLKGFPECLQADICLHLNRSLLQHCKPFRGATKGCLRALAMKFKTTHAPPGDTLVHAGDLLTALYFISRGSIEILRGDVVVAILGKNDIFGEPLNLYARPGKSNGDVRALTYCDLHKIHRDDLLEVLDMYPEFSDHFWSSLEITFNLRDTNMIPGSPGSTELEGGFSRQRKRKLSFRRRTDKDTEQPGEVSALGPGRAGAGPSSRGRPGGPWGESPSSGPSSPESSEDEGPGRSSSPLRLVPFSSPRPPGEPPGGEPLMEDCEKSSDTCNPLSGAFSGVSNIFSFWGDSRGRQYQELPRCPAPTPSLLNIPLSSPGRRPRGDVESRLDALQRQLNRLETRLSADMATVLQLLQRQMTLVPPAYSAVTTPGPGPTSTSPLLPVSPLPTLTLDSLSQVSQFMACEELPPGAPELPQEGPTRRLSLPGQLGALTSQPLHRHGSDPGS", "conditions": "HEK293, CHO; Mathur, A. et al, 2015; cited from earlier work"}, "[1]": {"tested_on": "Control constructs (non-stimulated human cardiac macrotissues)", "assay": "ECG-like signal recording of non-stimulated human cardiac macrotissues under drug treatment", "assay_type": "cell-based", "conditions": "10 μM sotalol, 10 min treatment, day 14 of culture", "source_text": "Isoproterenol, carbachol and sotalol were purchased from Sigma-Aldrich."}, "CardioSlice constructs [2]": {"tested_on": "CardioSlice constructs", "assay": "Chronotropic/contractile response by video area-oscillation analysis (custom MATLAB program)", "assay_type": "cell-based, human", "method": "FIG. 11. Chronotropic responses of human cardiac macrotissues to the proarrhythmic drug sotalol. Changes in the beat rate were analyzed through custom MATLAB program at different incubation times (from 0 min to 40 min). The area in pixels of each construct was obtained, and its oscillation was represented over time (relative to the highest number of pixels recorded). (a) Sotalol effects on non-stimulated cardiac constructs (Control). (b) Sotalol effects on electrically stimulated cardiac constructs (CardioSlice).\nContractile function of cardiac macrotissues in spontaneous beating and in response to electric field stimulation was assessed in a set-up equivalent to one previously described (Tandon, N. et al, 2009; Tandon, N. et al, 2011). […] The space between the electrodes was filled with Tyrode's salts solution (Sigma-Aldrich Quimica), and cardiac macrotissues were imaged and video recorded using a Stereo Microscope Leica MZ10F (Leica Microsystems) with a DFC4025C Digital Microscope Camera (Leica Microsystems). […] To measure the amplitude of contraction of each cardiac macrotissue, spontaneous beating of the constructs was recorded for at least 10 s. Then, the Fractional Area Change (FAC) of 10 beats was calculated using a custom MATLAB program (v. R2014b, Natick, Mass., USA) as previously described (Tandon, N. et al., 2009). […]"}, "CardioSlice constructs [3]": {"tested_on": "CardioSlice constructs", "quoted_text": "All chemicals were dissolved in distilled water to make stock solutions, and serial dilutions were made in RPMI (Invitrogen) culture medium. To test changes in the β-adrenergic response, 1 μM isoproterenol was injected to the bioreactor circuit through the luer injection port (Inycom). For cholinergic stimulation, 10 μM carbachol was injected, and sotalol was added at 10 μM to evaluate the blockade of hERG current (Braam, S. R. et al, 2013). Spontaneous activity of cardiac constructs was recorded as baseline period. Cardiac constructs were treated with pharmacological agents during 10 min for immediate analysis, followed by 5 min washout for isoproterenol and carbachol, and 15 min for sotalol.\nElectrocardiogram (ECG)-like signals were acquired through the three electrodes configuration built in the custom-made cell culture chamber and using an advanced transducer amplifier. The gold electrode acted as internal reference, and electrical activity of cardiac macrotissues was acquired using the gold and graphite electrodes. In particular, “Amplifier I” acquires activity between: “Graphite+ and Reference”; and “Amplifier II” acquires activity between: “Graphite+ and Graphite−” (FIG. 8). The obtained ECG-like signal is generated by the sum of the synchronized action potentials of all cardiomyocytes. Its shape is similar to regular surface ECG signals for humans, including the presence of the QRS complex and T wave (FIG. 4a). […] ECG-like signal recordings were monitored and stored in a computer using the AcqKnowledge software v.4.1 (BIOPAC, Santa Barbara, Calif., USA), and were analyzed with MATLAB (v. R2014b, Natick, Mass., USA). ECG-like signals were recorded at a sampling frequency of 12.5 kHz, and were filtered and decimated at a sampling rate of 500 Hz.\nRecorded ECG-like signals were bandpass filtered (zero-phase fourth-order Butterworth filter with cut-off frequencies of 0.2 and 125 Hz), to use the main bandwidth of the classical electrocardiographic studies. […] Beat-to-beat fiducial points were detected and then signal averaging techniques were applied to estimate the main pattern of each ECG-like signal, enabling analysis and interpretation of QRS complex, T wave and QT interval (FIG. 4a and FIG. 5c).\nDuring the experiments involving drug treatment, instantaneous beat rate expressed as beats per minute (bpm) was calculated over ECG-like signals, generated in both control and CardioSlice constructs at baseline and after drug application. Beat rate was assessed by measuring the RR interval, which is the time elapsing between two consecutive R waves in the electrocardiogram. Relative beat rate to baseline was calculated to evaluate the behavior of cardioactive drug effects."}}}
{"compound": "COc1cc2nc(N(C)CCCNC(=O)C3CCCO3)nc(N)c2cc1OC", "note": "(stereo not drawn) [alfuzosin]", "values": [{"measurement": "outcome of hERG safety assay versus actual cardiac safety", "setting": "hERG ion channels", "value": "false negatives"}]}
{"compound": "CC(C)NCC(O)c1ccc(NS(C)(=O)=O)cc1", "note": "(stereo not drawn) [sotalol]", "values": [{"measurement": "beating frequency", "setting": "[1]", "value": "random increases and decreases"}, {"measurement": "morphology of ECG-like signals", "setting": "[1]", "value": "no alteration"}, {"measurement": "chronotropic response (beat rate changes)", "setting": "CardioSlice constructs [2]; sotalol, incubation times from 0 min to 40 min", "value": "a negative chronotropic effect can be observed, followed by a progressive emergence of cardiac arrhythmias"}, {"measurement": "contractile patterns (mechanical level)", "setting": "CardioSlice constructs [2]; sotalol-treated CardioSlice constructs", "value": "dyssynchronous contractile patterns"}, {"measurement": "increase of the QT interval (prolongation)", "setting": "CardioSlice constructs [3]; human, 10 μM", "value": "greater than 20%"}]}
{"compound": "C[N+](C)(C)CCOC(N)=O", "note": "[carbachol]", "values": [{"measurement": "beating frequency", "setting": "CardioSlice constructs [3]; 10 μM carbachol, 10 min incubation, relative to baseline", "value": "statistically significant decrease"}]}
{"compound": "CC(C)NCC(O)c1ccc(O)c(O)c1", "note": "(stereo not drawn) [isoproterenol]", "values": [{"measurement": "RR intervals", "setting": "CardioSlice constructs [3]; 1 μM isoproterenol, 10 min incubation", "value": "decreased"}, {"measurement": "beating rate", "setting": "CardioSlice constructs [3]; 1 μM isoproterenol, 10 min incubation, relative to baseline", "value": "statistically significant increment"}]}
